Among the data in the supplement of paper PMC10307832 are relative viability values, retold here.

Holding throughout (assay): relative viability (nuclei count vs DMSO), 5 days (fraction); higher = more cells survive
Compound in the test “AZ505 + Lapatinib”: C1CCC(CC1)N(CCNCCC2=C3C(=C(C=C2)O)NC(=O)CO3)C(=O)CCNCCC4=CC(=C(C=C4)Cl)Cl [AZ505] + CS(=O)(=O)CCNCc1ccc(-c2ccc3ncnc(Nc4ccc(OCc5cccc(F)c5)c(Cl)c4)c3c2)o1 [Lapatinib] (partner 2 µM)
The method in brief:
(§1)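 Relative viability divides the nuclei count in treated wells by that in vehicle wells. Lung cancer cell lines were seeded in 1536-well plates, dosed by pin tool the next day, and fixed and stained after 5 days in one step with final 0.05% Triton X-100, 1% formaldehyde and 1 ug/ml Hoechst. Dosing was a single drug or a fixed anchor-drug dose plus five library-drug doses (not always all listed) in √10 steps, and values are medians of duplicate plates imaged at 4×.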

Compound in the test “Dactolisib + Palbociclib”: Cn1c(=O)n(-c2ccc(C(C)(C)C#N)cc2)c2c3cc(-c4cnc5ccccc5c4)ccc3ncc21 [Dactolisib] + CC(=O)c1c(C)c2cnc(Nc3ccc(N4CCNCC4)cn3)nc2n(C2CCCC2)c1=O [Palbociclib] (partner 0.5 µM)
Summed up: as §1

Compound in the test “Dactolisib + Luminespib”: Cn1c(=O)n(-c2ccc(C(C)(C)C#N)cc2)c2c3cc(-c4cnc5ccccc5c4)ccc3ncc21 [Dactolisib] + CCNC(=O)c1noc(-c2cc(C(C)C)c(O)cc2O)c1-c1ccc(CN2CCOCC2)cc1 [Luminespib] (partner 0.01 µM)
Summed up:
as §1

Compound in the test “Dactolisib + Phenformin”: Cn1c(=O)n(-c2ccc(C(C)(C)C#N)cc2)c2c3cc(-c4cnc5ccccc5c4)ccc3ncc21 [Dactolisib] + N=C(N)NC(=N)NCCc1ccccc1 [Phenformin] (partner 250 µM)
Summed up:
as §1

Turning to NCI-H520, the relative viability came out at 0.799 with AZ505 + Lapatinib (first compound 0.08 µM); 0.828 in the test with AZ505 + Lapatinib (first compound 0.253 µM); 0.761 with AZ505 + Lapatinib (first compound 0.8 µM); 0.895 with AZ505 + Lapatinib (first compound 2.53 µM); 0.983 with AZ505 + Lapatinib (first compound 8 µM); 0.206 with Dactolisib + Palbociclib (first compound 0.002 µM). Moreover, the relative viability was found to be 0.178 with Dactolisib + Palbociclib (first compound 0.006325 µM); 0.163 with Dactolisib + Palbociclib (first compound 0.02 µM); 0.153 in the test with Dactolisib + Palbociclib (first compound 0.06325 µM); 0.117 in the test with Dactolisib + Palbociclib (first compound 0.2 µM); 0.22 in the test with Dactolisib + Luminespib (first compound 0.002 µM); 0.184 with Dactolisib + Luminespib (first compound 0.006325 µM). For the same cell line, the relative viability was 0.233 in the test with Dactolisib + Luminespib (first compound 0.02 µM); 0.207 with Dactolisib + Luminespib (first compound 0.06325 µM); 0.204 with Dactolisib + Luminespib (first compound 0.2 µM); 0.529 with Dactolisib + Phenformin (first compound 0.002 µM); 0.534 in the test with Dactolisib + Phenformin (first compound 0.006325 µM); 0.369 with Dactolisib + Phenformin (first compound 0.02 µM). Besides, the relative viability came out at 0.202 in the test with Dactolisib + Phenformin (first compound 0.06325 µM) and 0.217 in the test with Dactolisib + Phenformin (first compound 0.2 µM).
Take RERF-LC-KJ: the relative viability was found to be 0.767 with AZ505 + Lapatinib (first compound 0.08 µM); 0.923 with AZ505 + Lapatinib (first compound 0.253 µM); 0.846 with AZ505 + Lapatinib (first compound 0.8 µM); 0.87 in the test with AZ505 + Lapatinib (first compound 2.53 µM); 0.795 with AZ505 + Lapatinib (first compound 8 µM); 1.19 with Dactolisib + Palbociclib (first compound 0.002 µM). The relative viability in the test with Dactolisib + Palbociclib (first compound 0.006325 µM) was found to be 1.12; with Dactolisib + Palbociclib (first compound 0.02 µM), 0.863; in the test with Dactolisib + Palbociclib (first compound 0.06325 µM) it was 0.438; with Dactolisib + Palbociclib (first compound 0.2 µM), 0.452; with Dactolisib + Luminespib (first compound 0.002 µM), 1.3; with Dactolisib + Luminespib (first compound 0.006325 µM), 1.29. Also, the relative viability with Dactolisib + Luminespib (first compound 0.02 µM) came out at 0.859; in the test with Dactolisib + Luminespib (first compound 0.06325 µM) it was 0.326; in the test with Dactolisib + Luminespib (first compound 0.2 µM), 0.415; in the test with Dactolisib + Phenformin (first compound 0.002 µM), 0.42; with Dactolisib + Phenformin (first compound 0.006325 µM), 0.415; in the test with Dactolisib + Phenformin (first compound 0.02 µM), 0.428. The relative viability with Dactolisib + Phenformin (first compound 0.06325 µM) came to 0.298; with Dactolisib + Phenformin (first compound 0.2 µM), 0.302.
Take A-427: the relative viability was 1.1 with AZ505 + Lapatinib (first compound 0.08 µM); 1.07 with AZ505 + Lapatinib (first compound 0.253 µM); 0.961 with AZ505 + Lapatinib (first compound 0.8 µM); 1.03 with AZ505 + Lapatinib (first compound 2.53 µM); 0.998 with AZ505 + Lapatinib (first compound 8 µM); 0.547 with Dactolisib + Palbociclib (first compound 0.002 µM). For the same cell line, the relative viability in the test with Dactolisib + Palbociclib (first compound 0.006325 µM) was determined as 0.529; with Dactolisib + Palbociclib (first compound 0.02 µM), 0.498; with Dactolisib + Palbociclib (first compound 0.06325 µM), 0.428; with Dactolisib + Palbociclib (first compound 0.2 µM), 0.401; with Dactolisib + Luminespib (first compound 0.002 µM), 0.737; with Dactolisib + Luminespib (first compound 0.006325 µM) it was 0.834. Also, the relative viability with Dactolisib + Luminespib (first compound 0.02 µM) is 0.861; with Dactolisib + Luminespib (first compound 0.06325 µM), 0.572; with Dactolisib + Luminespib (first compound 0.2 µM) it was 0.47; in the test with Dactolisib + Phenformin (first compound 0.002 µM), 0.366; with Dactolisib + Phenformin (first compound 0.006325 µM), 0.335; in the test with Dactolisib + Phenformin (first compound 0.02 µM), 0.348. Besides, the relative viability worked out at 0.263 in the test with Dactolisib + Phenformin (first compound 0.06325 µM) and 0.244 with Dactolisib + Phenformin (first compound 0.2 µM).
For the cell line NCI-H441, the relative viability is 0.27 with Dactolisib + Palbociclib (first compound 0.002 µM); 0.206 with Dactolisib + Palbociclib (first compound 0.006325 µM); 0.194 with Dactolisib + Palbociclib (first compound 0.02 µM); 0.176 with Dactolisib + Palbociclib (first compound 0.06325 µM); 0.133 with Dactolisib + Palbociclib (first compound 0.2 µM); 0.446 with Dactolisib + Luminespib (first compound 0.002 µM). The relative viability stood at 0.331 with Dactolisib + Luminespib (first compound 0.006325 µM); 0.305 with Dactolisib + Luminespib (first compound 0.02 µM); 0.285 with Dactolisib + Luminespib (first compound 0.06325 µM); 0.206 with Dactolisib + Luminespib (first compound 0.2 µM); 1.28 with Dactolisib + Phenformin (first compound 0.002 µM); 0.737 in the test with Dactolisib + Phenformin (first compound 0.006325 µM). Further, the relative viability in the test with Dactolisib + Phenformin (first compound 0.02 µM) turned out to be 0.812; in the test with Dactolisib + Phenformin (first compound 0.06325 µM) it was 0.337; in the test with Dactolisib + Phenformin (first compound 0.2 µM), 0.289.
On to NCI-H1703, for which the relative viability in the test with AZ505 + Lapatinib (first compound 0.08 µM) worked out at 1; with AZ505 + Lapatinib (first compound 0.253 µM), 1.26; with AZ505 + Lapatinib (first compound 0.8 µM) it was 1.03; with AZ505 + Lapatinib (first compound 2.53 µM), 1.2; with AZ505 + Lapatinib (first compound 8 µM) it was 1.28.
In the case of NCI-H1792, the relative viability turned out to be 0.822 with AZ505 + Lapatinib (first compound 0.08 µM); 0.846 in the test with AZ505 + Lapatinib (first compound 0.253 µM); 0.861 in the test with AZ505 + Lapatinib (first compound 0.8 µM); 0.852 with AZ505 + Lapatinib (first compound 2.53 µM); 0.99 with AZ505 + Lapatinib (first compound 8 µM); 0.676 in the test with Dactolisib + Palbociclib (first compound 0.002 µM). In addition, the relative viability was 0.651 in the test with Dactolisib + Palbociclib (first compound 0.006325 µM); 0.568 in the test with Dactolisib + Palbociclib (first compound 0.02 µM); 0.34 in the test with Dactolisib + Palbociclib (first compound 0.06325 µM); 0.271 with Dactolisib + Palbociclib (first compound 0.2 µM); 0.259 in the test with Dactolisib + Luminespib (first compound 0.002 µM); 0.403 in the test with Dactolisib + Luminespib (first compound 0.006325 µM). Moreover, the relative viability worked out at 0.404 in the test with Dactolisib + Luminespib (first compound 0.02 µM); 0.142 in the test with Dactolisib + Luminespib (first compound 0.06325 µM); 0.11 with Dactolisib + Luminespib (first compound 0.2 µM); 0.249 in the test with Dactolisib + Phenformin (first compound 0.002 µM); 0.172 with Dactolisib + Phenformin (first compound 0.006325 µM); 0.262 in the test with Dactolisib + Phenformin (first compound 0.02 µM). The relative viability with Dactolisib + Phenformin (first compound 0.06325 µM) was found to be 0.101; with Dactolisib + Phenformin (first compound 0.2 µM), 0.0814.
Take Calu-6: the relative viability with AZ505 + Lapatinib (first compound 0.08 µM) amounted to 0.925; with AZ505 + Lapatinib (first compound 0.253 µM), 1.17; in the test with AZ505 + Lapatinib (first compound 0.8 µM) it was 1.07; with AZ505 + Lapatinib (first compound 2.53 µM), 1.02; with AZ505 + Lapatinib (first compound 8 µM), 1.11.
Take SW 1573: the relative viability came to 1.03 in the test with AZ505 + Lapatinib (first compound 0.08 µM); 1.04 in the test with AZ505 + Lapatinib (first compound 0.253 µM); 1.15 with AZ505 + Lapatinib (first compound 0.8 µM); 1.17 with AZ505 + Lapatinib (first compound 2.53 µM); 1.09 with AZ505 + Lapatinib (first compound 8 µM); 0.395 with Dactolisib + Palbociclib (first compound 0.002 µM). The relative viability with Dactolisib + Palbociclib (first compound 0.006325 µM) worked out at 0.324; in the test with Dactolisib + Palbociclib (first compound 0.02 µM), 0.225; with Dactolisib + Palbociclib (first compound 0.06325 µM), 0.154; in the test with Dactolisib + Palbociclib (first compound 0.2 µM), 0.116; with Dactolisib + Luminespib (first compound 0.002 µM), 0.234; with Dactolisib + Luminespib (first compound 0.006325 µM) it was 0.214. For the same cell line, the relative viability in the test with Dactolisib + Luminespib (first compound 0.02 µM) is 0.214; with Dactolisib + Luminespib (first compound 0.06325 µM), 0.168; with Dactolisib + Luminespib (first compound 0.2 µM) it was 0.0994; with Dactolisib + Phenformin (first compound 0.002 µM), 0.382; with Dactolisib + Phenformin (first compound 0.006325 µM) it was 0.238; in the test with Dactolisib + Phenformin (first compound 0.02 µM), 0.31. Further, the relative viability with Dactolisib + Phenformin (first compound 0.06325 µM) is 0.139; in the test with Dactolisib + Phenformin (first compound 0.2 µM) it was 0.175.
